Test [1] relates to MCF7. In words: Growth inhibition of human MCF7 cells after days by SRB assay. The test is classed as functional. For orientation: In SRB staining, fixed cells bind dye roughly in proportion to their protein.
Test [2] is described as follows: Inhibition of yeast Hsp90 ATPase expressed in Escherichia coli. Details: species or system Saccharomyces cerevisiae.

This note sets out measurements from ChEMBL document CHEMBL1140482, “A novel class of Hsp90 inhibitors isolated by structure-based virtual screening” (Bioorg Med Chem Lett, 2007).

On to `COc1cc(/C=C/c2nc3ccccc3c(=O)n2-c2ccccc2O)ccc1O`, for which it took 9.6 µM to inhibit growth in test [1] by half (GI50). In addition, in test [2], inhibition was half-maximal at 2.3 µM (IC50).
Taken in the same sequence, the figures for `O=C(O)c1ccc(-n2c(/C=C/c3ccccc3O)nc3ccccc3c2=O)cc1` were 27.5 µM and 20 µM.
Take `COc1ccc(-n2c(/C=C/c3cccc(OC)c3O)nc3ccccc3c2=O)cc1`: the GI50 – broadly, the concentration at which growth is held to half of that of the control – in test [1] worked out at 25.4 µM. Moreover, the midpoint of inhibition in test [2], the IC50, lay at 31.8 µM.
With `COC1=C2C[C@@H](C)C[C@H](OC)[C@H](O)[C@@H](C)/C=C(\C)[C@H](OC(N)=O)[C@@H](OC)/C=C\C=C(/C)C(=O)NC(=CC1=O)C2=O` [GELDANAMYCIN], in test [1], halving of growth (GI50) required 35.6 µM. Further, the midpoint of inhibition in test [2], the IC50, lay at 22 µM.
